The text below walks through data of PMC4713475, “In Vivo Differences between Two Optical Isomers of Radioiodinated o-iodo-trans-decalinvesamicol for Use as a Radioligand for the Vesicular Acetylcholine Transporter” (PLoS ONE, 2016).

A word on the Ki: it is a dissociation constant, usually derived from enzyme kinetics or from competition with a known ligand.

Data set [1] concerns the target T1, σ-2 receptor (Rattus norvegicus, UniProt Q5U3Y7).
T1 construct: Rat liver preparations (about 100 μg protein) were incubated in quadruplicate; from tissue; host or cells: liver of male Sprague-Dawley rats
T1 sequence (Q5U3Y7 1-176): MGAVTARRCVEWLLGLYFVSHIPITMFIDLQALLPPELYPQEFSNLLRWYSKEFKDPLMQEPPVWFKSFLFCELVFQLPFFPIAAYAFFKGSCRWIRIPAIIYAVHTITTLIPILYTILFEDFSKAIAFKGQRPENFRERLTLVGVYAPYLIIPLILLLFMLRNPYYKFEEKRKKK
As to the kind of experiment: σ-2 receptor competitive binding with [3H]DTG in rat liver preparations.
Method: Rat brain and liver tissue preparations were prepared from dissected brains (not including the cerebellum) and livers from male Sprague-Dawley rats (250–300 g), as previously described[34].
The incubated samples were treated in the same manner as described for the σ-1 receptor binding assay.
(§2) Ki values were calculated using Graphpad Prism (GraphPad Software, Inc. San Diego, USA).

In data set [2] the target is T2, VAChT (Rattus norvegicus, UniProt Q62666).
T2 construct: The rats were sacrificed 60 minutes after injection and their brains collected; from tissue; host or cells: brain of live male Sprague-Dawley rats (in vivo)
T2 sequence (Q62666 1-530): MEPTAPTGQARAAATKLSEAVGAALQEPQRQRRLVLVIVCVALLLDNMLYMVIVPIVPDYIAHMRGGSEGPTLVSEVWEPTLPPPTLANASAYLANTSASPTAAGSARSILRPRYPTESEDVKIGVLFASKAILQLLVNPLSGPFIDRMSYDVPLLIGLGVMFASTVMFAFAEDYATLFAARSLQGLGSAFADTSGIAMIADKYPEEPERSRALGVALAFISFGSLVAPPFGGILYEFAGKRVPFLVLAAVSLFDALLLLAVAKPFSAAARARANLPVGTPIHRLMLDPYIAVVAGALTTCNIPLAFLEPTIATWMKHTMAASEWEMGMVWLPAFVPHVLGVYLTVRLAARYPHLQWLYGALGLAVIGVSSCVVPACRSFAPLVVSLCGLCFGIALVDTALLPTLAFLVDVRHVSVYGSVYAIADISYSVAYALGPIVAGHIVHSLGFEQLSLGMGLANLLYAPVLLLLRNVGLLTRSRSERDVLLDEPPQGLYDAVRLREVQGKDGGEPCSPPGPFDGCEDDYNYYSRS
The data set can be described thus: VAChT in vitro competitive binding with (-)-[3H]vesamicol in rat brain preparations.

Details of data set [3]: method as in PMID 24174343. The note with it: previous report; cited from earlier work.
Data set [4] is described as follows: In vivo biodistribution study in rats. The following applies: for Biodistribution, Blood / Biodistribution, Cerebellum / Biodistribution, Cortex / Biodistribution, Heart / Biodistribution, Kidney / Biodistribution, Liver / Biodistribution, Lung / Biodistribution, Pancreas / Biodistribution, Rest brain / Biodistribution, Small intestine / Biodistribution, Spleen / Biodistribution, Stomach / Biodistribution, Striatum: n = 4, mean ± SD. Details: species or system rat. The protocol: Three groups of male Sprague-Dawley (SD) rats (n = 4 in each group), weighing 250–300 g, were anesthetized with ether and given an intravenous (i.v.) injection of (-)-[^125I]OIDV or (+)-[^125I]OIDV (0.4 mL, 185 kBq). At 2, 30, and 60 min post-injection, the animals were sacrificed by decapitation under ether anesthesia. The organs of interest were dissected, weighed, and the radioactivity levels were measured in a gamma scintillation counter (AccuFLEX γ7010, Aloka, Tokyo). The degree of accumulation of radiotracer was expressed as a percentage of the injected dose per gram of tissue (% ID/g).
(§1) The results of biodistribution study were statistically analyzed using one-way ANOVA (non-parametric) followed by a Mann Whitney test. Statistical comparisons for the in vivo blocking experiments were performed using one-way ANOVA (non-parametric), Kruskal-Wallis test, and Dunn’s Multiple Comparison test.

Data set [5] concerns the target T2, VAChT. The data set can be described thus: Ex vivo autoradiography of rat brain. The data set is classed as in vivo. The note with it: 60 min post-injection. How it is done: Four SD rats were injected intravenously with either (-)-[^125I]OIDV or (+)-[^125I]OIDV (0.4 mL, 1.85 MBq) either alone as a control or with 0.25 μmol (+/–)-vesamicol via the tail vein. At 60 min post-injection, the rats were sacrificed by exsanguination, and perfused via the left ventricle with saline solution (50 mL) followed by 4% paraformaldehyde (pH 7.4, 0.1 M phosphate buffer, 100 mL). Whole brains were removed, frozen in embedding medium at -78°C and cut into 20 μm sections at -25°C using a cryostat microtome. The sections were apposed to an imaging plate (Fujifilm, BAS-IP SR 2025) for eight days. The imaging plates were scanned by a BAS-5000 phosphor image reader (Fujifilm). Ex vivo autoradiograhy of (-)-[^123I]OIDV(0.4 mL, 111 MBq) was performed by the same method of two [^125I]OIDV isomers.

In data set [6] the target is T2, VAChT. As to the kind of experiment: In vivo blocking study of regional brain uptake. The note with it: rats, 60 min. How it is done: The rats were sacrificed 60 minutes after injection and their brains collected. The cortex, striatum, cerebellum, and the remainder of the brain were dissected and separated, and their weights and radioactivity measured.
as §1

Data set [7] deals with σ-1 receptor (Rattus norvegicus, UniProt Q9R0C9). As to the kind of experiment: σ-1 receptor competitive binding with (+)-[3H]pentazocine in rat cerebrum preparations.
Method: The incubated samples were treated in the same manner as described for the VAChT binding assays, except that Whatman GF/B glass fiber filters were used.
as §2

Like-named read-outs stand apart in the source and are kept apart here.

σ-1 receptor, sequence (Q9R0C9 whole entry): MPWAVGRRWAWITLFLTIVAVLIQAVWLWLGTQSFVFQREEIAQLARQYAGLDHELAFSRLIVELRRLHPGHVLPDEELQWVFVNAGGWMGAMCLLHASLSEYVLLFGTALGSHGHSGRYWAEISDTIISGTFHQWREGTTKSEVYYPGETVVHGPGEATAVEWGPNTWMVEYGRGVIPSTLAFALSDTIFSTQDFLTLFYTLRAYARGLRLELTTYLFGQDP

Consider `OC1CCCCC1N1CCC(c2ccccc2)CC1` (racemic) [(+/-)-vesamicol, 2-(4-phenylpiperidino) cyclohexanol, reference compound], for which the inhibition constant (Ki) in data set [1] stood at 70 ± 16.6 nM; in data set [2], 23.3 ± 3.3 nM.

As to `OC1C[C@@H]2CCCC[C@H]2CC1N1CCC(c2ccccc2[125I])CC1` (mixture of isomers) [racemic [^125I]OIDV], in data set [3], the “radiolabeled metabolites in the brain” value is on record as “unable to observe the presence of radiolabeled metabolites in the brain”.

`OC1C[C@@H]2CCCC[C@H]2CC1N1CCC(c2ccccc2[125I])CC1` (single isomer, unassigned; (-)) [(-)-[^125I]OIDV]: the “striatum distribution relative to (+)-[125I]OIDV” value in data set [4] (at 30 min and 60 min post-injection) is 1.4–1.6 times. Moreover, the “retention of accumulated radioactivity in brain” value in data set [4] (i.v.) was “greater than 60 min”. Also, in data set [4] (i.v., 2 min post-injection), the “Biodistribution, Blood” value is on record as 0.13 ± 0.01 % ID/g; the “Biodistribution, Cerebellum” value came out at 0.53 ± 0.04 % ID/g; the “Biodistribution, Cortex” value is on record as 0.55 ± 0.10 % ID/g; the “Biodistribution, Heart” value is recorded as 2.34 ± 0.23 % ID/g. Further, in data set [4] (i.v., 2 min post-injection), the “Biodistribution, Kidney” value turned out to be 2.84 ± 0.63 % ID/g; the “Biodistribution, Liver” value worked out at 2.07 ± 0.63 % ID/g; the “Biodistribution, Lung” value is recorded as 5.84 ± 0.44 % ID/g; the “Biodistribution, Pancreas” value came out at 2.66 ± 0.40 % ID/g. In data set [4] (i.v., 2 min post-injection), the “Biodistribution, Rest brain” value turned out to be 0.48 ± 0.07 % ID/g; the “Biodistribution, Small intestine” value is recorded as 0.89 ± 0.12 % ID/g; the “Biodistribution, Spleen” value is listed as 0.94 ± 0.40 % ID/g; the “Biodistribution, Stomach” value is recorded as 0.18 ± 0.09 % ID/g. Besides, the “Biodistribution, Striatum” value in data set [4] (i.v., 2 min post-injection) came to 0.47 ± 0.10 % ID/g. In data set [4] (i.v., 30 min post-injection), the “Biodistribution, Blood” value was 0.05 ± 0.01 % ID/g; the “Biodistribution, Cerebellum” value stood at 0.55 ± 0.11 % ID/g; the “Biodistribution, Cortex” value stood at 0.62 ± 0.10 % ID/g; the “Biodistribution, Heart” value was found to be 0.44 ± 0.06 % ID/g. In addition, in data set [4] (i.v., 30 min post-injection), the “Biodistribution, Kidney” value is reported as 2.35 ± 0.38 % ID/g; the “Biodistribution, Liver” value was determined as 2.60 ± 0.75 % ID/g; the “Biodistribution, Lung” value is listed as 2.51 ± 0.90 % ID/g; the “Biodistribution, Pancreas” value is 4.67 ± 0.58 % ID/g. For the same compound, in data set [4] (i.v., 30 min post-injection), the “Biodistribution, Rest brain” value came to 0.55 ± 0.09 % ID/g; the “Biodistribution, Small intestine” value was found to be 1.45 ± 0.50 % ID/g; the “Biodistribution, Spleen” value is 1.37 ± 0.27 % ID/g; the “Biodistribution, Stomach” value stood at 0.22 ± 0.23 % ID/g. Further, the “Biodistribution, Striatum” value in data set [4] (i.v., 30 min post-injection) amounted to 0.63 ± 0.09 % ID/g. Further, in data set [4] (i.v., 60 min post-injection), the “Biodistribution, Blood” value is listed as 0.04 ± 0.01 % ID/g; the “Biodistribution, Cerebellum” value turned out to be 0.41 ± 0.07 % ID/g; the “Biodistribution, Cortex” value is recorded as 0.51 ± 0.06^! % ID/g; the “Biodistribution, Heart” value worked out at 0.25 ± 0.05 % ID/g. Also, in data set [4] (i.v., 60 min post-injection), the “Biodistribution, Kidney” value was 2.21 ± 0.17 % ID/g; the “Biodistribution, Liver” value came out at 2.19 ± 0.17 % ID/g; the “Biodistribution, Lung” value was determined as 1.54 ± 0.41 % ID/g; the “Biodistribution, Pancreas” value turned out to be 4.21 ± 0.20 % ID/g. In data set [4] (i.v., 60 min post-injection), the “Biodistribution, Rest brain” value is recorded as 0.47 ± 0.06^+ % ID/g; the “Biodistribution, Small intestine” value came to 1.85 ± 0.14 % ID/g; the “Biodistribution, Spleen” value amounted to 0.91 ± 0.08 % ID/g; the “Biodistribution, Stomach” value turned out to be 0.24 ± 0.22 % ID/g. The “Biodistribution, Striatum” value in data set [4] (i.v., 60 min post-injection) was 0.50 ± 0.07^$ % ID/g. Also, the “time post-injection of highest accumulation in the brain” value in data set [4] (i.v., all brain regions) was 30 min. For the same compound, the “brain accumulation by ex vivo autoradiography with co-injection of vesamicol” value in data set [5] (0.25 μmol vesamicol co-injected) is “remarkably decreased”. Also, the “regional brain distribution by ex vivo autoradiography” value in data set [5] (tracer alone) is “distributed in characteristically VAChT-rich regions”. In data set [6] (0.25 μmol (+)-3-PPP co-injected i.v., all four brain regions), the “regional brain uptake with co-injection of (+)-3-PPP” value is listed as 72–82 % of control. The “regional brain uptake with co-injection of (+)-pentazocine” value in data set [6] (0.25 μmol (+)-pentazocine co-injected i.v., all four brain regions) is 72–82 % of control. Further, in data set [6] (0.25 μmol (+/-)-vesamicol co-injected i.v., all four brain regions), the “regional brain uptake with co-injection of vesamicol” value is “approximately 25 % of control”. Also, the “decrease in brain uptake by vesamicol” value in data set [6] (0.250 μmol vesamicol co-injected) is given as 71–73%.

As to `O[C@H]1C[C@@H]2CCCC[C@H]2C[C@@H]1N1CCC(c2ccccc2I)CC1` [(+)-OIDV, (2S,3S,4aS,8aS)-3-(4-(2-iodophenyl)piperidin-1-yl)decahydronaphthalen-2-ol], the inhibition constant (Ki) in data set [1] (read-out: Ki σ-2) is 101 ± 18.8 nM; in data set [7], 316 ± 26.3 nM.

As to `O[C@@H]1C[C@H]2CCCC[C@@H]2C[C@H]1N1CCC(c2ccccc2I)CC1` [(-)-OIDV], the Ki in data set [1] (read-out: Ki σ-2) was 59.9 ± 10.6 nM; in data set [7], 168 ± 47.2 nM; in data set [2] (read-out: Ki VAChT), 22.1 ± 4.3 nM.

Regarding `OC1CC2CCCCC2CC1N1CCC(c2ccccc2)CC1` (centres unmarked) [DV, decalinvesamicol], the Ki in data set [1] (rat liver preparations, 5 nM [3H]DTG, 1 μM (+)-pentazocine to mask σ-1, 37°C 90 min, mean ± SD, read-out: Ki σ-2) stood at 65.9 ± 12.1 nM; in data set [7] (read-out: Ki σ-1, rat cerebrum preparations, 5 nM (+)-[3H]pentazocine, 37°C 90 min, mean ± SD) it was 74.4 ± 12 nM; in data set [2] (rat brain preparations, (-)-[3H]vesamicol, 200 nM DTG to mask sigma receptors, 37°C 60 min, mean ± SD, read-out: Ki VAChT), 8.6 ± 2.5 nM.
